Laboratory results from patent US20260115190A1, “DISPERSIONS OF ETRUMADENANT” (Arcus Biosciences, Inc., priority 2022, published 2026).

Columns and labels:
P-gp = P-gp (Homo sapiens, UniProt P08183); test: In vitro transporter substrate data (P-gp); assay type: in vitro ADME
[1] = Thermal analysis by MDSC (Tg); assay type: physicochemical; conditions: amorphous etrumadenant made by melt quenching; one experiment
Procedure: Thermal Properties. Thermal properties were measured using a TA Instruments Discovery DSC2500 DSC equipped with a TA instruments Refrigerated Cooling System 90 operating in modulated mode. Briefly, bulk drug substance was analyzed by standard DSC with a heating rate of 10° C. per minute ramping up to 220° C. Amorphous etrumadenant was created from the starting drug substance by rapidly melt quenching using liquid N2 and then analyzed by modulated DSC (MDSC). Events monitored include the glass transition temperature (Tg), cold crystallization (Tc), defined as a crystallization event at a temperature lower than the melt temperature, and melting temperature (Tm). In one experiment, the thermal properties were as follows: Tg=69° C.; Tc=no crystallization up to 220° C.; Tm=192° C. Minor lot-to-lot variation may occur.

[2] = IV reference AUClast in beagle dogs; conditions: dog, in vivo, IV at 5 mg/kg
[3] = Phase 1 relative bioavailability (capsule v. tablet) and food effect study; assay type: in vivo, human
From the text: This example describes a Phase 1 study to compare the single-dose PK of an etrumadenant tablet versus an etrumadenant capsule, in healthy adult participants (19-55 years of age), and to evaluate the effect of food on the single-dose PK of etrumadenant tablet, in healthy adult participants.
The study was an open-label, randomized, 3-treatment, 3 period crossover study to evaluate the relative bioavailability (BA) of etrumadenant tablet and capsule formulations and the effect of food on the tablet formulation. On Day 1 of each period, a single dose of etrumadenant was administered in a 3-period crossover fashion. Participants (n=24) received etrumadenant capsules under fasting (Treatment A) conditions and etrumadenant tablets under fasting (Treatment B) and fed (high-fat meal; Treatment C) conditions. PK samples for etrumadenant and its metabolites were taken predose and up to 120 hours post dose. There was a washout of at least 7 days between the etrumadenant doses. All participants who received at least one dose of etrumadenant (including participants who terminate the study early) were asked to return to the Clinical Research Unit (CRU) 14 (+2) days after the last dose for follow-up procedures, and to determine if any adverse event (AE) has occurred since the last study visit.
Study treatments are described as follows. […]
Additional PK parameters were calculated if deemed appropriate. […]

A2BR = target: T1, A2BR (Homo sapiens, UniProt P29275); conditions: antagonist; has been reported; cited from earlier work
T1 sequence (P29275 1-332): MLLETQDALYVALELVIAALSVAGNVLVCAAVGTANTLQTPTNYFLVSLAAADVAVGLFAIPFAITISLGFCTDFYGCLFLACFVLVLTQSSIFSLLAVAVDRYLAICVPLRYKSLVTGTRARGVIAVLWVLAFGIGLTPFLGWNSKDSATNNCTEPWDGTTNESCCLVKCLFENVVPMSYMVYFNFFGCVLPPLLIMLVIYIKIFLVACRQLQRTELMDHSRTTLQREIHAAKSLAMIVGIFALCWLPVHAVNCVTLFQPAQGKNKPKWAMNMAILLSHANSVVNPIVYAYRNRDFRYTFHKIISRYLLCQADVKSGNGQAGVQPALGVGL

Sequence of P-gp (P08183 whole entry): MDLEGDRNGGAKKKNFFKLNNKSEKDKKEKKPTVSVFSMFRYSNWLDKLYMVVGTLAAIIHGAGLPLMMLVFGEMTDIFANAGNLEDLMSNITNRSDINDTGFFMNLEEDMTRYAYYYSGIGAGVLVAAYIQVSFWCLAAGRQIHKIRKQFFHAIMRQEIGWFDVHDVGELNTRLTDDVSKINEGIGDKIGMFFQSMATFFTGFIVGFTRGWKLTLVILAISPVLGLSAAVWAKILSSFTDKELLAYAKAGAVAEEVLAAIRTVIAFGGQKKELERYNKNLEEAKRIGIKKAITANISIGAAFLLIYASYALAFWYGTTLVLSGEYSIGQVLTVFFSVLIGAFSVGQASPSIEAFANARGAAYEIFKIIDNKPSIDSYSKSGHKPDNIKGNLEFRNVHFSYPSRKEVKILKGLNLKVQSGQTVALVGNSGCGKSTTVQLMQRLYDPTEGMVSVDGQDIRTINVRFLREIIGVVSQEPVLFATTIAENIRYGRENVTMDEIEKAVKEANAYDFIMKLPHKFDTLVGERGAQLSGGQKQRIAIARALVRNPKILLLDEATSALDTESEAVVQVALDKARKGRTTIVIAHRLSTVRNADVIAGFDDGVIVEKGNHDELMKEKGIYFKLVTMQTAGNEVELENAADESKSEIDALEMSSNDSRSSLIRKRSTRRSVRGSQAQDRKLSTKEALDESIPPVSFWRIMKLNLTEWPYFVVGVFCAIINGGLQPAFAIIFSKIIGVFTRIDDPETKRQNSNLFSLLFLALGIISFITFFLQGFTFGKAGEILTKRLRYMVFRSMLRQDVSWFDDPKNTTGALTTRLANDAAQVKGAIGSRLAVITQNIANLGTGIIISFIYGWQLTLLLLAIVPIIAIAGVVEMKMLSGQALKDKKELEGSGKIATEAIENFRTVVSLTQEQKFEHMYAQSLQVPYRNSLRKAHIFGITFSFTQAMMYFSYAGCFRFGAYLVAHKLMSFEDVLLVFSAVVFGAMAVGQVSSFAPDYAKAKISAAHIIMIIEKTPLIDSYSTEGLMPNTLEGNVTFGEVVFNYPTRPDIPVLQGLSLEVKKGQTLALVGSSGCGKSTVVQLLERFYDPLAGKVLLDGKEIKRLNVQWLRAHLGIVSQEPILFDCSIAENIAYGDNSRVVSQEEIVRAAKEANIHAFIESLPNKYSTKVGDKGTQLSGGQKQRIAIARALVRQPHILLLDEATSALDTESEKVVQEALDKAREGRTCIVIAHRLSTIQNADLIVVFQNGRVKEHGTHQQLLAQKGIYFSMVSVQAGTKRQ

Cc1c(C#N)cccc1-c1cc(-c2cn(Cc3cccc(C(C)(C)O)n3)nn2)nc(N)n1 [Etrumadenant, 3-[2-amino-6-(1-{[6-(2-hydroxypropan-2-yl)pyridine-2-yl]methyl}-1H-1,2,3-triazol-4-yl)pyrimidin-4-yl]-2-methylbenzonitrile]
substrate of P-gp (P-gp): substrate
glass transition temperature (Tg) [1]: 69 °C
AUC(0-t) [2]: 25100 ng·h/mL
Cmax, AUC and Tmax in capsules and tablets ([3]; 150 mg, fasting): statistically equivalent
effect of fed conditions on overall exposure (AUClast and AUCINF) compared to fasting condition ([3]; tablet 150 mg): no effect
potency on A2BR (A2BR): less than 10 nM
